{"source": "patent US20160031859A1", "about": "“Alkyl [(S)-1-((S)-2--buta-1,3-diynyl)-phenyl]-1H-imidazol-2-yl}-pyrrolidine-1-carbonyl)-2-methyl-propyl]-carbamate naphthalene-1,5-disulfonate, pharmaceutical composition, medicament, method for treatment of viral diseases” (priority 2013, published 2016)", "key": {"[1]": {"tested_on": "genotype 1a HCV", "test": "HCV replicon inhibitory activity, genotype 1a", "format": "cell-based", "conditions": "Hepatitis C virus; HCV genotype 1a, FBS; read-out: gT1a FBS EC50"}, "[2]": {"tested_on": "genotype 2a HCV", "test": "HCV replicon inhibitory activity, genotype 2a", "format": "cell-based", "conditions": "Hepatitis C virus; HCV genotype 2a, FBS; read-out: gT2a FBS EC50"}, "[3]": {"tested_on": "subgenomic RNA-replicon HCV (genotype 1b, clon Con1)", "test": "HCV replicon immunoenzymatic assay in Huh7 cells, genotype 1b", "format": "cell-based", "conditions": "Hepatitis C virus, Huh-7, read-out: gT1b FBS EC50", "protocol": "Determination of antiviral activity of the compounds of the general formula 1 (inhibiting ability of NS5A protein).\nInhibiting ability of compounds of formula 1 of NS5A protein was determined in the human hepatoma cell line Huh7, comprising subgenomic RNA-replicon HCV (genotype 1b, don Con1). A version of immumoenzymatic assay (IEA) on viral protein NS5A in 96-well plate was used as an experimental method. Cytotoxicity of the compounds was estimated in parallel regime.\nCells Huh7 were seeded in 96-well plate (7.5×10^3 cells to each well in 100 μl of culture medium). Solutions of the tested compounds in DMEM medium {DMEM 1×; Source: Cellgro; Catalogue: 10-013-CV} were prepared immediately before use. Eleven serial three fold dilutions with variation of concentrations from 20 nM to 0.2 pM were prepared. In 4 hours after seeding, serial dilutions of the compounds were added to the cells (100 μl to each well). Final concentration of tested compounds was varied from 10 nM to 0.1 pM, and DMSO—0.5%. If it was necessary, higher concentrations of the disclosed azoles were investigated. Each dilution of the compound was tested on two identical wells. […] The reaction was arrested by the addition of 2N H2SO4 in amount of 100 μl/well, and optical density (wavelength 490 nm) was measured by means of multiscan plate reader Victor3 V 1420 (Perkin Elmer). […]"}, "[4]": {"test": "Investigation of storage of naphthalene-1,5-disulfonates (amount of admixtures, UV 220 nm)", "format": "physicochemical", "conditions": "for Max admixture / Sum of admixtures: refrigerator, 4.7° C.", "protocol": "Investigation of storage of naphthalene-1,5-disulfonates of the general formula 1. All samples were stored in glass vials sealed with rubber cork and aluminum caps, in a refrigerator at a temperature of about ˜4.7 ° C. The amount of admixtures was determined by method of internal normalization, detection was carried out using UV detector at 220 nm. Below are given the test results for compound 1.1 showing their stability at temperature 4.7° C."}}, "data": [{"smiles": "COC(=O)N[C@H](C(=O)N1CCC[C@H]1c1ncc(C#CC#Cc2ccc(-c3cnc([C@@H]4CCCN4C(=O)[C@@H](NC(=O)OC)C(C)C)[nH]3)cc2)[nH]1)C(C)C", "note": "[Compound 1.1, methyl [(S)-1-((S)-2-{5-[4-(4-{2-[(S)-1-((S)-2-methoxycarbonylamino-3-methyl-butyryl)-pyrrolidin-2-yl]-3H-imidazol-4-yl}-buta-1,3-diynyl)-phenyl]-1H-imidazol-2-yl}-pyrrolidine-1-carbonyl)-2-methylpropyl]-carbamate naphthalene-1,5-disulfonate]", "values": [{"measurement": "EC50", "setting": "[1]", "value": "< 1", "unit": "nM"}, {"measurement": "EC50", "setting": "[2]", "value": "< 1", "unit": "nM"}, {"measurement": "EC50", "setting": "[3]", "value": "< 1", "unit": "nM"}, {"measurement": "Max admixture", "setting": "[4]; 1 week storage", "value": 0.348, "unit": "%"}, {"measurement": "Sum of admixtures", "setting": "[4]; 1 week storage", "value": 1.369, "unit": "%"}, {"measurement": "Max admixture", "setting": "[4]; 4 weeks storage", "value": 0.341, "unit": "%"}, {"measurement": "Sum of admixtures", "setting": "[4]; 4 weeks storage", "value": 1.506, "unit": "%"}, {"measurement": "Max admixture", "setting": "[4]; 20 weeks storage", "value": 0.298, "unit": "%"}, {"measurement": "Sum of admixtures", "setting": "[4]; 20 weeks storage", "value": 1.493, "unit": "%"}, {"measurement": "Max admixture", "setting": "[4]; before the test", "value": 0.342, "unit": "%"}, {"measurement": "Sum of admixtures", "setting": "[4]; before the test", "value": 1.312, "unit": "%"}, {"measurement": "storage stability, in words", "setting": "[4]; temperature 4.7° C.", "value": "stability"}]}]}
